Test results as given in patent publication US11993574B2, “Pyrazole and imidazole compounds for inhibition of IL-17 and RORgamma” (REATA PHARMACEUTICALS, INC., priority 2018, dated 2024).

Columns and labels:
Assay type in all cases: cell-based
IL-17A = assay: IL-17 release from differentiated primary human T-cells (IL-17A HTRF assay); settings: primary human CD4+ T cells differentiated into Th17 cells, 45-hour incubation, IL-17A in supernatant; read-out: hIL17 IC50
Procedure, shortened: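 Primary human CD4+ T cells (~2×10^5/well) given compound (2–500 or 4–1000 nM, 0.1% DMSO), CD3/CD28-activated and Th17-differentiated (TGF-β, IL-6, IL-23, IL-1β) for 45 h at 37° C. Supernatant IL-17A by HTRF against standard curve, normalized to vehicle; IC50 by variable-slope regression, with parallel CyQuant viability.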

[1] = target: T1, Human RAR-related Orphan Receptor Gamma (RORγ) (Homo sapiens, UniProt P51449); assay: RORγ assay (GAL4-RORγ hybrid luciferase reporter, Indigo Biosciences); settings: inverse-agonist activity, GAL4-RORγ reporter cells, 23 hours
T1 sequence (P51449 269-508 limits assumed): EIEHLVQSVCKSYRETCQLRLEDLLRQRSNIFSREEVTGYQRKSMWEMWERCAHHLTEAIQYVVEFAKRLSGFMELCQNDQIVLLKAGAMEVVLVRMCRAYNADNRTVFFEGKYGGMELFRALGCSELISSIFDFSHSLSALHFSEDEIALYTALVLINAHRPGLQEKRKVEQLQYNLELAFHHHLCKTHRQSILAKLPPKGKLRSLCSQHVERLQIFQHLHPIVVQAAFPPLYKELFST
Procedure, shortened: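 […]engineered human reporter cell line expressing GAL4-DBD/RORγ-LBD hybrid with GAL4-UAS luciferase; constitutive activity measured as inverse agonism. Cells treated with compound (7.8-2000 nM) for 23 h at 37 °C; luminescence normalized to DMSO, IC50 by variable-slope fit, with parallel viability readout to flag non-specific inhibition.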

[2] = tested on: Nrf2 transcription factor; assay: AREc32 luciferase reporter assay; settings: Homo sapiens; AREc32 cells, 19 hours; concentration required to increase GST ARE luciferase reporter activity by 2-fold; read-out: NRF2 ARE 2-Fold (EC2×)
Procedure, shortened: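 AREc32 cells (MCF-7 with firefly luciferase under eight rat GSTA2 ARE copies) treated 19 h with compound (0.4-200 nM or 3.9-2000 nM) in triplicate. Luminescence normalized to DMSO as fold-induction, capped at 50-fold. EC2× = concentration giving 2-fold reporter increase, interpolated from variable-slope fit.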

| SMILES | IC50 (IL-17A) [nM] | IC50 [1] [nM] | EC (2-fold) [2] [µM] |
| --- | --- | --- | --- |
| C[C@H]1C(=O)C(C#N)=C[C@@]2(C)c3nc(-c4ccc(-c5ccccc5)cc4)n(-c4cccnc4)c3CC[C@H]12 [T152] | 131 | 188 | 1.16 |
| C[C@H]1C(=O)C(C#N)=C[C@@]2(C)c3c(c(-c4ccncn4)nn3-c3ccc(-c4ccccc4)cn3)CC[C@H]12 [T59] | 99 | 113 | 0.449 |
| C[C@H]1C(=O)C(C#N)=C[C@@]2(C)c3c(c(-c4ccncc4)nn3-c3ccc(-c4cncc(F)c4)cc3)CC[C@H]12 [T101] | 51 | 54 | 0.353 |
| Cc1noc(C)c1-c1ccc(-n2nc(-c3ccccc3)c3c2[C@]2(C)C=C(C#N)C(=O)[C@H](C)[C@H]2CC3)cc1 [T38] | 37 | 46 | 0.215 |
| C[C@H]1C(=O)C(C#N)=C[C@@]2(C)c3c(c(-c4cccnc4)nn3-c3nc4ccccc4s3)CC[C@H]12 [T99] | 87 | 449 | 0.329 |
| CC(C)c1ccc(-c2nc3c(n2C2CC2)CC[C@@H]2[C@@H](C)C(=O)C(C#N)=C[C@@]32C)cc1 [T161] | 113 | 150 | 1.02 |
| Cc1cc(-c2ccc(-n3nc(-c4ccc(F)cc4)c4c3[C@]3(C)C=C(C#N)C(=O)[C@H](C)[C@H]3CC4)cc2)cnn1 [T177] | 9 | 52 | 0.271 |
| C[C@H]1C(=O)C(C#N)=C[C@@]2(C)c3c(c(N(C)C4CCC4)nn3-c3ccc(-c4ccccc4)cc3)CC[C@H]12 [T80] | 17 | 71 | 0.347 |
| C[C@H]1C(=O)C(C#N)=C[C@@]2(C)c3c(c(-c4ccncn4)nn3-c3ccc(-c4cccnc4)cc3)CC[C@H]12 [T51] | 91 | 48 | 0.501 |
| C[C@H]1C(=O)C(C#N)=C[C@@]2(C)c3c(c(-c4ccncn4)nn3-c3ccc(-c4cccc(CO)c4)cn3)CC[C@H]12 [T60] | 141 | 101 | 0.44 |
| C[C@H]1C(=O)C(C#N)=C[C@@]2(C)c3nn(-c4cccc(-c5ccccc5)c4)c(-c4cccc(F)c4)c3CC[C@H]12 [T126] | 21 | 253 | 1.12 |
| C[C@H]1C(=O)C(C#N)=C[C@@]2(C)c3c(c(-c4ccccc4)nn3-c3ccc(-c4ccncc4)cc3)CC[C@H]12 [T39] | 31 | 25 | 0.139 |
| C[C@H]1C(=O)C(C#N)=C[C@@]2(C)c3nc(-c4cccc(-c5cncnc5)c4)n(-c4cccc(F)c4)c3CC[C@H]12 [T147] | 185 | 108 | 0.515 |
| Cc1nc(-c2ccc(-n3nc(-c4ccccc4F)c4c3[C@]3(C)C=C(C#N)C(=O)[C@H](C)[C@H]3CC4)cc2)no1 [T94] | 24 | 65 | 0.146 |
| C[C@H]1C(=O)C(C#N)=C[C@@]2(C)c3c(c(-c4ccncc4)nn3-c3ccc(-c4ccccc4)cc3)CC[C@H]12 [T67] | 26 | 49 | 0.269 |
| C[C@H]1C(=O)C(C#N)=C[C@@]2(C)c3nc(-c4cccc(-c5ccccc5)c4)n(-c4cccnc4)c3CC[C@H]12 [T155] | 161 | 201 | 0.738 |
| CC(C)c1ccc(-n2nc3c(c2-c2ccccc2)CC[C@@H]2[C@@H](C)C(=O)C(C#N)=C[C@@]32C)cc1 [T26] | 61 | 104 | 0.944 |
| C[C@H]1C(=O)C(C#N)=C[C@@]2(C)c3c(c(-c4ccccc4F)nn3-c3nc4cc(C(F)(F)F)ccc4s3)CC[C@H]12 [T88] | 11 | 219 | 0.743 |
| C[C@H]1C(=O)C(C#N)=C[C@@]2(C)c3nc(-c4ccnc(C(F)(F)F)c4)n(-c4cccc(F)c4)c3CC[C@H]12 [T141] | 194 | 146 | 0.892 |
| C[C@H]1C(=O)C(C#N)=C[C@@]2(C)c3c(c(-c4ccncn4)nn3-c3ccc(-c4cccnc4)cn3)CC[C@H]12 [T57] | 67 | 96 | 0.403 |
| CC(C)c1ccc(-c2nc3c(n2Cc2ccc(Cl)cc2)CC[C@@H]2[C@@H](C)C(=O)C(C#N)=C[C@@]32C)cc1 [T169] | 33 | 371 | 1.01 |

| SMILES | IC50 (IL-17A) [nM] | IC50 [1] [nM] | EC (2-fold) [2] [µM] |
| --- | --- | --- | --- |
| C[C@H]1C(=O)C(C#N)=C[C@@]2(C)c3c(c(-c4ccncn4)nn3-c3ccc(-c4cncnc4)cc3)CC[C@H]12 [T50] | 326 | 115 | 0.977 |
| C[C@H]1C(=O)C(C#N)=C[C@@]2(C)c3nn(C4CCOCC4)c(-c4ccccc4)c3CC[C@H]12 [T28] | 136 | 90 | 0.719 |
| C[C@H]1C(=O)C(C#N)=C[C@@]2(C)c3c(c(-c4ccccc4)nn3-c3ccc(-c4cccnc4)cc3)CC[C@H]12 [T37] | 24 | 32 | 0.167 |
| C[C@H]1C(=O)C(C#N)=C[C@@]2(C)c3c(c(-c4ccccc4)nn3-c3ccccc3)CC[C@H]12 [T11] | 111 | 73 | 0.107 |
| C[C@H]1C(=O)C(C#N)=C[C@@]2(C)c3nn(-c4ccc(-c5ccccc5)cc4)c(-c4cccnc4)c3CC[C@H]12 [T125] | 86 | 137 | 0.877 |
| C[C@H]1C(=O)C(C#N)=C[C@@]2(C)c3c(c(-c4ccccc4)nn3CC(F)(F)F)CC[C@H]12 [T3] | 92 | 276 | 1.46 |
| C[C@H]1C(=O)C(C#N)=C[C@@]2(C)c3nn(-c4ccc(Cl)cc4)c(-c4ccccc4)c3CC[C@H]12 [T114] | 507 | 106 | 0.894 |
| C[C@H]1C(=O)C(C#N)=C[C@@]2(C)c3c(c(-c4ccncn4)nn3-c3ccc(-c4cccc(F)c4)cn3)CC[C@H]12 [T58] | 43 | 128 | 0.355 |
| C[C@H]1C(=O)C(C#N)=C[C@@]2(C)c3nc(-c4cccc(-c5ccnn5C)c4)n(-c4cccc(F)c4)c3CC[C@H]12 [T151] | 154 | 234 | 0.749 |
| C[C@H]1C(=O)C(C#N)=C[C@@]2(C)c3c(c(-c4ccncn4)nn3-c3ccc(-c4cncc(F)c4)cc3)CC[C@H]12 [T49] | 52 | 59 | 0.392 |
| CC(C)c1ccc(-c2nc3c([nH]2)CC[C@@H]2[C@@H](C)C(=O)C(C#N)=C[C@@]32C)cc1 [T173] | 119 | 1970 | 0.884 |
| C[C@H]1C(=O)C(C#N)=C[C@@]2(C)c3nn(-c4cccc(-c5ccccc5)c4)c(-c4ccncn4)c3CC[C@H]12 [T121] | 85 | 242 | 1.07 |
| Cc1nc(-c2ccc(-n3nc(-c4ccc(F)cc4)c4c3[C@]3(C)C=C(C#N)C(=O)[C@H](C)[C@H]3CC4)cc2)no1 [T182] | 32 | 96 | 0.249 |
| C[C@H]1C(=O)C(C#N)=C[C@@]2(C)c3nc(-c4ccc(-c5ccccc5)cc4)n(-c4cccc(F)c4)c3CC[C@H]12 [T127] | 62 | 267 | 1.12 |
| C[C@H]1C(=O)C(C#N)=C[C@@]2(C)c3c(c(-c4ccccc4)nn3-c3ccc(C(F)(F)F)cc3)CC[C@H]12 [T6] | 35 | 91 | 0.242 |
| C[C@H]1C(=O)C(C#N)=C[C@@]2(C)c3nc(C4CCCCC4)n(-c4ccccc4)c3CC[C@H]12 [T113] | 181 | 172 | > 1 |
| C[C@H]1C(=O)C(C#N)=C[C@@]2(C)c3c(c(-c4ccc(F)cc4)nn3-c3ccc(-c4ccccc4)cc3)CC[C@H]12 [T65] | 12 | 77 | 0.201 |
| C[C@H]1C(=O)C(C#N)=C[C@@]2(C)c3c(c(-c4ccccc4)nn3-c3cccc(-c4ccccc4)c3)CC[C@H]12 [T35] | 58 | 129 | 0.328 |
| Cc1noc(-c2ccc(-n3nc(-c4cccnc4)c4c3[C@]3(C)C=C(C#N)C(=O)[C@H](C)[C@H]3CC4)cc2)n1 [T107] | 87 | 112 | 0.505 |
| C[C@H]1C(=O)C(C#N)=C[C@@]2(C)c3nc(-c4cccc(-c5ccncc5)c4)n(-c4cnn(C)c4)c3CC[C@H]12 [T159] | 273 | 201 | 1.08 |
| C[C@H]1C(=O)C(C#N)=C[C@@]2(C)c3nc(-c4ccnc(N5CCOCC5)c4)n(-c4cnn(C)c4)c3CC[C@H]12 [T160] | 468 | 562 | > 2 |
